Results published in ChEMBL document CHEMBL4118101 (Bioorg Med Chem, 2018).
Converted amounts (≈) assume the structure as drawn. The source made the active and inactive calls. The calls are words filed in the database; no cut-off is given here.

Experiments:
Cryptococcus neoformans [1] = assay: Antifungal activity against Cryptococcus neoformans isolate CN1 measured after 48 hrs by CLSI M27-A3 protocol based method; type: functional; conditions: isolate CN1, 48 h
BEAS-2B = assay: Cytotoxicity against human BEAS2B cells at 31 ug/ml after 24 hrs by resazurin based assay; type: cell-based
Aspergillus flavus = assay: Antifungal activity against Aspergillus flavus ATCC MYA-3631 measured after 48 hrs by CLSI M38-A2 protocol based method; type: functional; conditions: ATCC MYA-3631, 48 h
[2] = Hemolytic activity in mouse RBC at 1.95 ug/ml after 1 hr relative to control; type: ADME, cell-based, Erythrocyte; conditions: mouse red blood cells (erythrocytes), at 1.95 µg/mL, read-out: Activity
A549 = assay: Cytotoxicity against human A549 cells at 15.5 ug/ml after 24 hrs by resazurin based assay; type: cell-based; conditions: a549, 24 h
Candida albicans [3] = assay: Antifungal activity against fluconazole/ITC-resistant Candida albicans ATCC 90819 measured after 48 hrs by CLSI M27-A3 protocol based method; type: functional; conditions: Candida albicans, ATCC 90819, 48 h; read-out: MIC
Aspergillus terreus = assay: Antifungal activity against Aspergillus terreus ATCC MYA-3633 measured after 48 hrs by CLSI M38-A2 protocol based method; type: functional; conditions: ATCC MYA-3633, 48 h
Candida parapsilosis [4] = assay: Antifungal activity against Candida parapsilosis isolate CP1 measured after 48 hrs by CLSI M27-A3 protocol based method; type: functional; conditions: Lodderomyces parapsilosis, isolate CP1, 48 h
[5] = Hemolytic activity in mouse RBC at 62.5 ug/ml after 1 hr relative to control; type: ADME, cell-based, Erythrocyte; conditions: mouse red blood cells (erythrocytes), read-out: Activity
Candida parapsilosis [6] = assay: Antifungal activity against Candida parapsilosis ATCC 22019 measured after 48 hrs by CLSI M27-A3 protocol based method; type: functional; conditions: Lodderomyces parapsilosis, ATCC 22019, 48 h
Candida albicans [7] = assay: Antifungal activity against fluconazole/ITC-susceptible Candida albicans ATCC MYA-2310 measured after 48 hrs by CLSI M27-A3 protocol based method; type: functional; conditions: Candida albicans, ATCC MYA-2310, 48 h; read-out: MIC
Cryptococcus neoformans [8] = assay: Antifungal activity against Cryptococcus neoformans isolate CN2 measured after 48 hrs by CLSI M27-A3 protocol based method; type: functional; conditions: Cryptococcus neoformans, isolate CN2, 48 h; read-out: MIC
Candida albicans [9] = assay: Antifungal activity against fluconazole/ITC-resistant Candida albicans ATCC MYA-1003 measured after 48 hrs by CLSI M27-A3 protocol based method; type: functional; conditions: Candida albicans, ATCC MYA-1003, 48 h; read-out: MIC
Aspergillus nidulans = assay: Antifungal activity against Aspergillus nidulans ATCC 38163 measured after 48 hrs by CLSI M38-A2 protocol based method; type: functional; conditions: ATCC 38163, 48 h
Candida albicans [10] = assay: Antifungal activity against Candida albicans ATCC 64124 measured after 48 hrs by CLSI M27-A3 protocol based method; type: functional; conditions: Candida albicans, ATCC 64124, 48 h; read-out: MIC
Candida albicans [11] = assay: Induction of membrane permeabilization in Candida albicans ATCC 10231 assessed as membrane disruption at 4 times MIC after 1 hr by propidium iodide staining based fluorescence microscopy; type: functional, organism-based
Candida albicans [12] = assay: Antifungal activity against fluconazole/ITC-susceptible Candida albicans ATCC MYA-2876 measured after 48 hrs by CLSI M27-A3 protocol based method; type: functional; conditions: Candida albicans, ATCC MYA-2876, 48 h
Nakaseomyces glabratus [13] = assay: Antifungal activity against Candida glabrata ATCC 2001 measured after 48 hrs by CLSI M27-A3 protocol based method; type: functional, CBS 138; conditions: Nakaseomyces glabratus, CBS 138, 48 h; read-out: MIC
[14] = Hemolytic activity in mouse RBC at 7.8 ug/ml after 1 hr relative to control; type: ADME, cell-based, Erythrocyte; conditions: mouse red blood cells (erythrocytes), read-out: Activity
Candida parapsilosis [15] = assay: Antifungal activity against Candida parapsilosis isolate CP3 measured after 48 hrs by CLSI M27-A3 protocol based method; type: functional; conditions: Lodderomyces parapsilosis, isolate CP3, 48 h
[16] = Hemolytic activity in mouse RBC at 0.48 ug/ml after 1 hr relative to control; type: ADME, cell-based, Erythrocyte; conditions: mouse red blood cells (erythrocytes), read-out: Activity
HEK293 = assay: Cytotoxicity against HEK293 cells up to 31 ug/ml after 24 hrs by resazurin based assay; type: cell-based; conditions: human, hek293, 24 h
Pichia kudriavzevii = assay: Antifungal activity against Candida krusei ATCC 6258 measured after 48 hrs by CLSI M27-A3 protocol based method; type: functional; conditions: Pichia kudriavzevii, ATCC 6258, 48 h
[17] = Hemolytic activity in mouse RBC at 31.3 ug/ml after 1 hr relative to control; type: ADME, cell-based, Erythrocyte; conditions: mouse red blood cells (erythrocytes), at 31.3 µg/mL, read-out: Activity
Nakaseomyces glabratus [18] = assay: Antifungal activity against Candida glabrata isolate CG2 measured after 48 hrs by CLSI M27-A3 protocol based method; type: functional; conditions: Nakaseomyces glabratus, isolate CG2, 48 h; read-out: MIC
Nakaseomyces glabratus [19] = assay: Antifungal activity against Candida glabrata isolate CG3 measured after 48 hrs by CLSI M27-A3 protocol based method; type: functional; conditions: Nakaseomyces glabratus, 48 h; read-out: MIC
Nakaseomyces glabratus [20] = assay: Antifungal activity against Candida glabrata isolate CG1 measured after 48 hrs by CLSI M27-A3 protocol based method; type: functional; conditions: Nakaseomyces glabratus, 48 h; read-out: MIC
[21] = Hemolytic activity in mouse RBC at 3.9 ug/ml after 1 hr relative to control; type: ADME, cell-based, Erythrocyte; conditions: mouse red blood cells (erythrocytes), read-out: Activity
[22] = Hemolytic activity in mouse RBC at […] ug/ml after 1 hr relative to control; type: ADME, cell-based, Erythrocyte; conditions: mouse red blood cells (erythrocytes), read-out: Activity
Candida parapsilosis [23] = assay: Fungistatic activity against Candida parapsilosis ATCC 22019 up to 4 times MIC incubated for 24 hrs by time kill assay; type: functional, organism-based
Candida albicans [24] = assay: Antifungal activity against fluconazole/ITC-resistant Candida albicans ATCC MYA-1237 measured after 48 hrs by CLSI M27-A3 protocol based method; type: functional; conditions: Candida albicans, ATCC MYA-1237, 48 h; read-out: MIC
Cryptococcus neoformans [25] = assay: Antifungal activity against Cryptococcus neoformans isolate CN3 measured after 48 hrs by CLSI M27-A3 protocol based method; type: functional; conditions: Cryptococcus neoformans, isolate CN3, 48 h; read-out: MIC
Candida albicans [26] = assay: Fungistatic activity against Candida albicans ATCC 10231 at 4 times MIC incubated for 24 hrs by time kill assay; type: functional, organism-based
Candida albicans [27] = assay: Antifungal activity against Candida albicans ATCC 10231 measured after 48 hrs by CLSI M27-A3 protocol based method; type: functional; conditions: ATCC 10231, 48 h
Candida parapsilosis [28] = assay: Antifungal activity against Candida parapsilosis isolate CP2 measured after 48 hrs by CLSI M27-A3 protocol based method; type: functional; conditions: Lodderomyces parapsilosis, isolate CP2, 48 h

With `CCCCCCCCNCC(O)(Cn1cncn1)c1ccc(F)cc1F` (stereo unspecified) the MIC (Cryptococcus neoformans [1]) was 5.3 µM (≈ 1.94 µg/mL), the Activity (BEAS-2B) was “Non-Toxic” and the MIC (Aspergillus flavus) was > 85.4 µM. The hemolysis at 1 h, 1.95 ug/ml [2] was 0%, the Activity (A549) was “Non-Toxic” and the MIC (Candida albicans [3]) was 21.3 µM (≈ 7.81 µg/mL). It also gave an MIC (Aspergillus terreus) of 42.6 µM (≈ 15.6 µg/mL), an MIC (Candida parapsilosis [4]) of 1.3 µM (≈ 0.476 µg/mL) and a hemolysis at 1 h, 62.5 ug/ml [5] of 78%. For the same compound, the MIC (Candida parapsilosis [6]) was 0.16 µM (≈ 0.0586 µg/mL), the MIC (Candida albicans [7]) was 85.4 µM (≈ 31.3 µg/mL) and the MIC (Cryptococcus neoformans [8]) was 10.6 µM (≈ 3.88 µg/mL). For the same compound, the MIC (Candida albicans [9]) was 85.4 µM (≈ 31.3 µg/mL), the MIC (Aspergillus nidulans) was 5.3 µM (≈ 1.94 µg/mL) and the MIC (Candida albicans [10]) was > 85.4 µM. The Activity (Candida albicans [11]) was “inactive”, the MIC (Candida albicans [12]) was 85.4 µM (≈ 31.3 µg/mL) and the MIC (Nakaseomyces glabratus [13]) was 2.7 to 21.3 µM (≈ 0.989 to 7.81 µg/mL). It also gave a hemolysis at 1 h, 7.8 ug/ml [14] of 0%, an MIC (Candida parapsilosis [15]) of 0.65 µM (≈ 0.238 µg/mL) and a hemolysis at 1 h, 0.48 ug/ml [16] of 2%. For the same compound, the Activity (HEK293) was “Non-Toxic”, the MIC (Pichia kudriavzevii) was 2.7 µM (≈ 0.989 µg/mL) and the hemolysis at 1 h, 31.3 ug/ml [17] was 9%. The MIC (Nakaseomyces glabratus [18]) was 2.7 µM (≈ 0.989 µg/mL), the MIC (Nakaseomyces glabratus [19]) was 42.6 µM (≈ 15.6 µg/mL) and the MIC (Nakaseomyces glabratus [20]) was 21.3 µM (≈ 7.81 µg/mL). The hemolysis at 1 h, 3.9 ug/ml [21] was 2%, the hemolysis at 1 h, 0.975 ug/ml [22] was 2% and the hemolysis at 1 h, 15.6 ug/ml [22] was 3%. For the same compound, the Activity (Candida parapsilosis [23]) was “Active”, the MIC (Candida albicans [24]) was 42.6 µM (≈ 15.6 µg/mL) and the MIC (Cryptococcus neoformans [25]) was 10.6 µM (≈ 3.88 µg/mL). The Activity (Candida albicans [26]) was “Active”, the MIC (Candida albicans [27]) was 2.7 µM (≈ 0.989 µg/mL) and the MIC (Candida parapsilosis [28]) was 0.33 µM (≈ 0.121 µg/mL).
